Data taken from patent US7354734B2, “Fungal proteins and nucleic acids encoding same” (priority 2003, dated 2008).
Values joined by “and” are separate entries in the source; they are usually repeats but may differ in a detail not shown here. Equal entries are not always repeated. Where two headings read alike, the source gives them in different places. Where a SMILES comes first, the peptide text is derived from it. [ ]: non-standard residue; d: D form. The star is where a group is joined. Sta = CC(C)C[C@H](N)[C@@H](O)CC(=O)O; Isovaleryl = CC(C)CC(=O)*

What was measured:
ruLAP1 = ruLAP1 (Trichophyton rubrum, UniProt Q5QHG5); assay type: biochemical; details: for effect of inhibitor on ruLAP1 activity: Leu-AMC 5 mM
ruLAP1, sequence (Q5QHG5 21-373): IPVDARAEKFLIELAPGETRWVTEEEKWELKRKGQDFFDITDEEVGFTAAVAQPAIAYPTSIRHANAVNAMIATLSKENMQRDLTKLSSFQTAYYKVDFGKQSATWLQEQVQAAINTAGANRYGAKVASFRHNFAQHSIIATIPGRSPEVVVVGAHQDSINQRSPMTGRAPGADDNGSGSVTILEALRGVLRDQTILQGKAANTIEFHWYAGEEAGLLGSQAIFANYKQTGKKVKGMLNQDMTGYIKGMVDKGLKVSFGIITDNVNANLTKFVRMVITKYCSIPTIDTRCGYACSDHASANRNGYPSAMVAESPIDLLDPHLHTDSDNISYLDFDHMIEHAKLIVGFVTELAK

fuLAP1 = fuLAP1 (Aspergillus fumigatus, UniProt Q5VJG6); experiment: biochemical; assay type: biochemical; details: for effect of inhibitor on fuLAP1 activity: Leu-AMC 5 mM; for effect of divalent cation on fuLAP1 activity: Leu-AMC, cations 0.5 mM and 1 mM
fuLAP1, sequence (Q5VJG6 16-388): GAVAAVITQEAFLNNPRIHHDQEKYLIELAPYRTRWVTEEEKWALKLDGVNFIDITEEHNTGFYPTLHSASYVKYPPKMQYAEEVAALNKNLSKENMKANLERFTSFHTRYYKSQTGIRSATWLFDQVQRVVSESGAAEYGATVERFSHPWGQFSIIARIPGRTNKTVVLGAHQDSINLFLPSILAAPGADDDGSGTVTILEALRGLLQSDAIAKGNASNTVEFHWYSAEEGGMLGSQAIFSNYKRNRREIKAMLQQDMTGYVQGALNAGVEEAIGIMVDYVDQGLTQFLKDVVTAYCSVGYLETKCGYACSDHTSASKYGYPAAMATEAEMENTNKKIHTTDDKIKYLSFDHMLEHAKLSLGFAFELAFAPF

fuLAP2 = assay type: biochemical, Aspergillus fumigatus; details: for effect of inhibitor on fuLAP2 activity: Leu-AMC 5 mM; for fuLAP2 activity as percentage of control reaction without inhibitor / fuLAP2 activity as percentage of control reaction without any cation: Leu-MCA substrate, 15 min pre-incubation; for effect of divalent cation on fuLAP2 activity: Leu-AMC, cations 0.5 mM and 1 mM
ruLAP2 = ruLAP2 (Trichophyton rubrum, UniProt Q5QHG6); assay type: biochemical; details: for effect of inhibitor on ruLAP2 activity: Leu-AMC 5 mM
ruLAP2, sequence (Q5QHG6 20-495): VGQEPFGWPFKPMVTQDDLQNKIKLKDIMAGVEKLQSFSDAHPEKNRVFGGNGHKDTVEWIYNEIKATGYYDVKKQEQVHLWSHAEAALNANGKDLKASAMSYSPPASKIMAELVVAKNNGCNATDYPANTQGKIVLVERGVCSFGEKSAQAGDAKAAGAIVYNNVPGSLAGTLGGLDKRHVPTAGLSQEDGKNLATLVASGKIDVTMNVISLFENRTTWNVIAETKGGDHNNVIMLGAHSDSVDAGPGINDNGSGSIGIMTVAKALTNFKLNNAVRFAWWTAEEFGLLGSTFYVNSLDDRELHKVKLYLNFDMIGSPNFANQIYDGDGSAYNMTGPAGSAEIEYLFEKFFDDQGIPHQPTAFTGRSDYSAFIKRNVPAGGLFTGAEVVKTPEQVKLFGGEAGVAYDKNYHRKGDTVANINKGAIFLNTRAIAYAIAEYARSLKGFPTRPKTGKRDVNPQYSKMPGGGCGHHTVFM

[1] = biological target: T1, pkLAP (microsomal LAP from porcine kidney) (Sus scrofa, UniProt P15145); experiment: Effect of inhibitors and metallic cations on LAP activity (Leu-AMC); assay type: biochemical; details: for effect of divalent cation on pkLAP activity: Leu-AMC, cations 0.5 mM and 1 mM
T1 construct: purchased Sigma; host or cells: porcine kidney
T1 sequence (P15145 1-963): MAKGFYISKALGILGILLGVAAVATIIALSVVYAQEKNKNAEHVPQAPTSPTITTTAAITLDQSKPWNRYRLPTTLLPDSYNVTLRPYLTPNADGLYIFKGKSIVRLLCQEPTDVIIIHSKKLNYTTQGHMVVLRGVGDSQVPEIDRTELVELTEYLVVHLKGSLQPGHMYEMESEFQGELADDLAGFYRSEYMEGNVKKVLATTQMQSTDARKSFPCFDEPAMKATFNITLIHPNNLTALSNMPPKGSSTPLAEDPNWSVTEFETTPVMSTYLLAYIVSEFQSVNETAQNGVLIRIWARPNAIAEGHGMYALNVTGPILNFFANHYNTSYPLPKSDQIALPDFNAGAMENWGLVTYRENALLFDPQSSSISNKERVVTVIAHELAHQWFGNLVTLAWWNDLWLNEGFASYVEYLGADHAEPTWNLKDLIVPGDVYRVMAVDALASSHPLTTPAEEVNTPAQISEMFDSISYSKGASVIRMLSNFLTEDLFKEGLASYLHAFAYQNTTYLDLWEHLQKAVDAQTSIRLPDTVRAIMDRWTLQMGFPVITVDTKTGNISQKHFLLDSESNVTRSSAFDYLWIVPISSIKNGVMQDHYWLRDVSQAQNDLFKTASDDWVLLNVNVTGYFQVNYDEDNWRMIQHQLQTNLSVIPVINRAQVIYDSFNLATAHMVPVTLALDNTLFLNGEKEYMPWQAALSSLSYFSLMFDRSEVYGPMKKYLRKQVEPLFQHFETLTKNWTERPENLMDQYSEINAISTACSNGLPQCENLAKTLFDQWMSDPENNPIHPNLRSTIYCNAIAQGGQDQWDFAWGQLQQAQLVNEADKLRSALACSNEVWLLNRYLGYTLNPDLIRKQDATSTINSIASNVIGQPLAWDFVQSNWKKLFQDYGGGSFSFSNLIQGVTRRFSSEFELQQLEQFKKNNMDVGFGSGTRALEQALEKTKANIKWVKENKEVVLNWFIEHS

[2] = inhibitor 20 μM, Leu-MCA substrate, 15 min pre-incubation
[3] = cation salt 0.5 mM, Leu-MCA substrate, 15 min pre-incubation
[4] = cation salt 1 mM, Leu-MCA substrate, 15 min pre-incubation

Structure (SMILES)	effect of inhibitor on ruLAP1 activity (ruLAP1)	effect of inhibitor on fuLAP1 activity (fuLAP1)	effect of inhibitor on ruLAP2 activity (ruLAP2)	ruLAP1 activity as percentage of control reaction without any cation (ruLAP1)	fuLAP1 activity as percentage of control reaction without any cation (fuLAP1; [3])	fuLAP1 activity as percentage of control reaction without any cation (fuLAP1; [4])	fuLAP2 activity as percentage of control reaction without any cation (fuLAP2; cation salt 0.5 mM)	fuLAP2 activity as percentage of control reaction without any cation (fuLAP2; cation salt 1 mM)	ruLAP2 activity as percentage of control reaction without any cation (ruLAP2; [3])	ruLAP2 activity as percentage of control reaction without any cation (ruLAP2; [4])	pkLAP activity as percentage of control reaction without any cation [1, 3]	pkLAP activity as percentage of control reaction without any cation [1, 4]	further results
Cc1ccc(S(=O)(=O)N[C@@H](Cc2ccccc2)C(=O)CCl)cc1 [TPCK]	no clear inhibitory effects	no clear inhibitory effects	no clear inhibitory effects										ruLAP1 activity as percentage of control reaction without inhibitor (ruLAP1; [2]): 68%; fuLAP1 activity as percentage of control reaction without inhibitor (fuLAP1; [2]): 95%; effect of inhibitor on fuLAP2 activity (fuLAP2): no clear inhibitory effects; fuLAP2 activity as percentage of control reaction without inhibitor (fuLAP2; inhibitor 20 μM): 87%; ruLAP2 activity as percentage of control reaction without inhibitor (ruLAP2; [2]): 79%; effect of inhibitor on pkLAP activity ([1]; Leu-AMC 5 mM): no clear inhibitory effects; pkLAP activity as percentage of control reaction without inhibitor [1, 2]: 108%
[Ca+2].[Cl-].[Cl-] [Ca^++, CaCl2]				151.7% and 175.6%	54.9%	43.3%	110.0%	165.4%	126.6%	141.9%	177.4%	161.8%	effect of divalent cation on fuLAP1 activity (fuLAP1): inhibited; effect of divalent cation on fuLAP2 activity (fuLAP2): activated
CC(C)CC(=O)N[C@H](C(=O)N[C@H](C(=O)N[C@@H](CC(C)C)[C@@H](O)CC(=O)N[C@@H](C)C(=O)N[C@@H](CC(C)C)[C@@H](O)CC(=O)O)C(C)C)C(C)C [pepstatin, pepstatin A] (Isovaleryl-VV[Sta]A[Sta]-OH)	some sensitivity	some sensitivity											remaining activity at 100 µM (fuLAP1; inhibitor 100 μM, Leu-MCA substrate, 15 min pre-incubation, read-out: fuLAP1 activity as percentage of control reaction without inhibitor): 14%; fuLAP2 activity as percentage of control reaction without inhibitor (fuLAP2; inhibitor 100 μM): 73%; remaining activity at 100 µM ([1]; inhibitor 100 μM, Leu-MCA substrate, 15 min pre-incubation, read-out: pkLAP activity as percentage of control reaction without inhibitor): 64%
[Cl-].[Cl-].[Mg+2] [MgCl2]				129.9% and 132.6%	68.5%	72.6%	97.6%	108.0%	121.2%	110.2%	130.1%	146.1%	
[Cl][Mn][Cl] [Mn^++, MnCl2]				120.7% and 105.2%	25.9%	28.4%	84.3%	140.2%	77.5%	86.8%	157.6%	165.8%	effect of divalent cation on fuLAP1 activity (fuLAP1): inhibited; effect of divalent cation on fuLAP2 activity (fuLAP2): activated
N=C(N)c1ccccc1 [benzamidine]	no clear inhibitory effects	no clear inhibitory effects	no clear inhibitory effects										remaining activity at 40 µM (fuLAP1; inhibitor 40 μM, Leu-MCA substrate, 15 min pre-incubation, read-out: fuLAP1 activity as percentage of control reaction without inhibitor): 77%; effect of inhibitor on fuLAP2 activity (fuLAP2): no clear inhibitory effects; fuLAP2 activity as percentage of control reaction without inhibitor (fuLAP2; inhibitor 40 μM): 91%; effect of inhibitor on pkLAP activity ([1]; Leu-AMC 5 mM): no clear inhibitory effects; remaining activity at 40 µM ([1]; inhibitor 40 μM, Leu-MCA substrate, 15 min pre-incubation, read-out: pkLAP activity as percentage of control reaction without inhibitor): 75%
CC(C)C[C@@H](N)[C@H](O)C(=O)N[C@H](C(=O)N[C@H](C(=O)N[C@@H](CC(=O)O)C(=O)O)C(C)C)C(C)C [amastatin]	strongly or totally inhibited	strongly or totally inhibited	strongly or totally inhibited										remaining activity at 500 µM (fuLAP1; inhibitor 500 μM, Leu-MCA substrate, 15 min pre-incubation, read-out: fuLAP1 activity as percentage of control reaction without inhibitor): 17%; effect of inhibitor on fuLAP2 activity (fuLAP2): strongly or totally inhibited; fuLAP2 activity as percentage of control reaction without inhibitor (fuLAP2; inhibitor 500 μM): 0%; effect of inhibitor on pkLAP activity [1]: strongly or totally inhibited; remaining activity at 500 µM ([1]; read-out: pkLAP activity as percentage of control reaction without inhibitor): 0%
[Cl][Ni][Cl] [Ni, NiCl2]				74.8% and 58.1%	51.7%	37.2%	98.4%	149.3%	130.5%	147.9%	1187.7%	1158.7%	effect of divalent cation on pkLAP activity [1]: highly activated
[Cl-].[Cl-].[Co+2] [Co^++, CoCl2]				210.2% and 202.1%	104.3%	96.5%	378.0%	662.7%	591.2%	789.7%	876.1%	899.8%	effect of divalent cation on fuLAP2 activity (fuLAP2): highly activated; effect of divalent cation on ruLAP2 activity (ruLAP2; Leu-AMC, cations 0.5 mM and 1 mM): highly activated
CC(C)C[C@H](NC(=O)[C@H]1O[C@@H]1C(=O)O)C(=O)NCCCCN=C(N)N (relative stereo) [E64, L-trans-epoxysuccinyl-leu-4-guanidinobutylamide]			blunted the activity										
[Cl][Cu][Cl] [Cu^++, CuCl2]					25.8%	17.0%	68.9%	73.6%	50.9%	34.7%	1422.0%	1092.4%	effect of divalent cation on pkLAP activity [1]: highly activated
